# Assay results taken from patent US12245562B2, “System for rapid, robust, and efficient in vitro mass propagation of Miscanthus x giganteus” (Delaware State University, priority 2017, dated 2025).
# Where a name gives a salt, the structure may show the parent alone.
# System: endophytic fungi
# Assay: control of endophyte growth in in vitro shoot culture media
# Type: cell-based
# Details: 54 μM in DSIM culture medium of Miscanthus x giganteus; compared with vancomycin hydrochloride 0, 13.5, 27, 41.5 μM and tetracycline hydrochloride 20.8 or 52 μM
smiles,measurement,value
"CN[C@H](CC(C)C)C(=O)N[C@H]1C(=O)N[C@@H](CC(N)=O)C(=O)N[C@H]2C(=O)N[C@H]3C(=O)N[C@H](C(=O)N[C@H](C(=O)O)c4cc(O)cc(O)c4-c4cc3ccc4O)[C@H](O)c3ccc(c(Cl)c3)Oc3cc2cc(c3O[C@@H]2O[C@H](CO)[C@@H](O)[C@H](O)[C@H]2O[C@H]2C[C@](C)(N)[C@H](O)[C@H](C)O2)Oc2ccc(cc2Cl)[C@H]1O [vancomycin, vancomycin hydrochloride]",controlling the growth of endophytic fungi in the culture media,more effective
